Common to all, as to format: cell-based, human
Experiment [1] concerns cell structure including vascular endothelial cells and tissue product including no vascular endothelial cell. Put plainly: Evaluation of effect of uptake inhibitor for fatty acid (BODIPY-modified fatty acid fluorescence). Conditions: 100 ng/mL TNFα in DMEM with 4 μM BODIPY-modified fatty acid; day 14; 0, 5, 30, 60 minutes; with and without vascular endothelial cells; control without TNFα defined as 100%; FIG. 18. As for the experimental part: A cell structure including vascular endothelial cells and a tissue product including no vascular endothelial cell were produced in the same manner as in Test Example 10, and evaluation was carried out with the cell structure and tissue product on day 14 after the beginning of formation thereof sCMF produced by using a sponge fragment of porcine skin-derived collagen I was used.
Into DMEM culture medium containing 4 μM BODIPY-modified fatty acid in place of NBD-modified glucose in (Evaluation of Glucose Uptake) of Test Example 10, 100 ng/mL TNFα as an uptake inhibitor for fatty acid was introduced. The cell structure including vascular endothelial cells and the tissue product including no vascular endothelial cell were each incubated, and fluorescence measurement was carried out after 0 minutes, 5 minutes, 30 minutes, and 60 minutes in the same manner as in Test Example 10. The number of samples for each treatment was 5 (n=5), and fatty acid uptake in the same control culture medium as in Test Example 10, which contained no TNFα, was defined as 100%.

In experiment [2] the test system is tissue product including no vascular endothelial cell. Put plainly: Evaluation of glucose uptake (NBD-modified glucose fluorescence) with uptake inhibitor and promoter. Conditions: 125 μM apigenin and/or 10 μg/mL insulin in DMEM with 0.1 mg/mL NBD-modified glucose; day 7 tissue product; 20-135 minutes; control medium defined as 100%; FIG. 16/17(a). On the procedure: A cell structure provided with a vascular network was produced with the same procedure as in Test Example 2, except that 6500 cells of mature adipocytes, 5500 cells of adipose stem cells, 2750 cells of vascular endothelial cells, 0.025 mg of the defibered collagen component (sCMF), 0.015 mg of fibrinogen, and 0.007 U of thrombin were used per tissue. The materials were prepared for 96 wells all at once to afford a gel, which was seeded on each well of a 96-well plate. […] The cell structures were incubated, and fluorescence measurement was carried out after 10 minutes, 30 minutes, 60 minutes, 120 minutes, and 150 minutes. Before the measurement at each timing, the culture medium for a cell structure to be subjected to measurement was substituted with 300 μL of PBS buffer, and the fluorescence was measured with a plate reader (Synergy HTX, manufactured by BioTek Instruments, Inc.) to determine the cumulative value of fluorescence intensity in the image. […] The tissue product was incubated, and fluorescence measurement was carried out after 20 minutes, 45 minutes, 70 minutes, 90 minutes, and 135 minutes in the same manner as in Test Example 10. […]

For experiment [3] the test system is unchanged. Description: Evaluation of release of glucose and fatty acid taken up, with release promoter. Conditions: 2 mM isoproterenol, then 30 minutes incubation, day 14 tissue product. On the procedure: A tissue product was produced in the same manner as for the cell structure in Test Example 10, except that no vascular endothelial cell was included, and evaluation was carried out with the tissue product on day 14 after the beginning of formation thereof.
In order to measure the amount of release of glucose once taken up, incubation was performed on DMEM culture medium supplemented with 0.1 mg/mL NBD-modified glucose as in Test Example 10 for 60 minutes, and then the culture medium was substituted again with 300 μL of DMEM culture medium supplemented with NBD-modified glucose, or with 300 μL of DMEM culture medium supplemented with 2 mM isoproterenol and NBD-modified glucose. Thereafter, incubation was performed for 30 minutes to allow glucose to be released from the cellular tissue, and fluorescence measurement was carried out. […]
The number of samples for each treatment was 5 […], fluorescence intensity for the tissue product with the culture medium containing no isoproterenol was defined as 100%, and what % of the amount of uptake was released was determined by comparing with fluorescence intensity for the tissue product with the culture medium containing isoproterenol. […]

For experiment [4] the test system is unchanged. Put plainly: Evaluation of fatty acid uptake (BODIPY-modified fatty acid fluorescence) with uptake promoter. Conditions: 10 μg/mL insulin in DMEM with 4 μM BODIPY-modified fatty acid; day 7 tissue product; 5, 30, 60 minutes; control without insulin defined as 100%; FIG. 17(b). On the procedure: A tissue product including no vascular endothelial cell was produced in the same manner as in Test Example 10, and evaluation was carried out with the tissue product on day 7 after the beginning of formation thereof sCMF produced by using a mixture of a sponge fragment of porcine skin-derived collagen I and a sponge fragment of porcine skin-derived collagen III was used.
A tissue product was incubated in the same manner as in Test Example 10, except that, in place of NBD-modified glucose in Test Example 10, 4 μM BODIPY-modified fatty acid (Invitrogen (R) BODIPY (R) 500/510 Cl, C12 (4,4-Difluoro-5-Methyl-4-Bora-3a,4a-Diaza-s-Indacene-3-Dodecanoi c Acid), Thermo Fisher Scientific) was added to DMEM culture medium, and fluorescence measurement was carried out after 5 minute, 30 minutes, and 60 minutes. Further, 10 μg/mL insulin was added to the DMEM culture medium containing 4 μM BODIPY-modified fatty acid, and fluorescence measurement was carried out in the same manner.
The number of samples for each treatment was 5 (n=5), and fatty acid uptake in the same control culture medium as in Test Example 10, which contained no insulin, was defined as 100%.

With TNFα, the “amount of uptake of fatty acid” value in experiment [1] is given as “reduced”. Regarding `O=c1cc(-c2ccc(O)cc2)oc2cc(O)cc(O)c12` [apigenin], the “amount of uptake of glucose” value in experiment [2] was “reduced”.

In the case of `CC(C)NCC(O)c1ccc(O)c(O)c1` (stereo not drawn) [isoproterenol], in experiment [3] (60 minutes uptake of BODIPY-modified fatty acid, FIG. 19(b)), the “release of fatty acid taken up” value is given as “promoted”. The “release of glucose taken up” value in experiment [3] (60 minutes uptake of NBD-modified glucose, FIG. 19(a)) is reported as “promoted”.

Consider Insulin from bovine pancreas, for which the “amount of uptake of glucose” value in experiment [2] is on record as “increased”. In addition, the “amount of fatty acid uptake” value in experiment [4] was “promoted”.

These data come from patent US20220170911A1, “CELL CONSTRUCT AND CELL CONSTRUCT PRODUCTION METHOD” (priority 2019, published 2022).
